These results are taken from patent US8716342B2, “Method for preparing molecular complexes between adapalene and cyclodextrins” (Galderma Research & Development, priority 2009, dated 2014).

Structures are written as SMILES.

The series can be described thus: Kinetics of dissolution at 3 g/l and at 25° C. in water (adapalene solubilized, HPLC; pH of the solution at the end). The class given is physicochemical. The protocol: b) Kinetics of Dissolution at 3 g/l and at 25° C.
The chromatographic conditions and the concentrations of the control solutions are the same as those of the assay.
• Stirring: 15-position bench • Thermostated bath: 25° C. +/−2° C. verified on Prolabo PR 531 probe • HPLC Waters 2690-Detector 2487/2996 • Weighing out: Sartorius A200 balance • Dilutions: Eppendorf Research 1000, Eppendorf Research 5000, Gilson M1000 micropipette • Ultrapure water station: ELGA Operating conditions:
A test sample equivalent to 150 mg of Adapalene is introduced into a 100 ml Erlenmeyer flask. 50 ml of water are added. The mixture is stirred magnetically at 400 rpm or position 4 in a waterbath at 25° C. +/−2° C. A 2 ml sample is withdrawn at 15, 30, 60, 120 and 1140 minutes, while stirring magnetically. These withdrawn samples are filtered through 0.45 μm Gelman GHP Acrodisc polypropylene filters. The solution must be clear. The withdrawn samples are diluted by a factor “a” in the mobile phase, making it possible to have an Adapalene peak of surface area included between the surface areas of Control 1 and Control 5.
10 μl of each control solution are injected. A linear regression of the surface areas of the Adapalene peaks relative to the concentrations is performed.
10 μl of the solution to be examined are injected.
The area of the Adapalene peak in each solution to be examined is measured.
The concentration X in μg/ml is deduced therefrom according to the regression line of the controls.
The concentration in μg of Adapalene solubilized per ml is calculated with the formula: [Adapalene] in μg/ml=X×a
The variation in the amount dissolved in μg/ml as a function of time is represented on a graph.
At the end of dissolution, the appearance is immediately noted and the pH of the solution immediately measured.

Turning to `COc1ccc(-c2ccc3cc(C(=O)O)ccc3c2)cc1C12CC3CC(CC(C3)C1)C2` [Adapalene alone, 6-(3-(1-adamantyl)-4-methoxyphenyl)-2-naphthoic acid], under “15 minutes”, the “pH of dissolution, 15 minutes” value was “(5.7)”. Besides, the “pH of dissolution, 7 days” value (7 days) was “(5.7)”. Where the note is “maturation temperature 85° C., 15 minutes”, the “Dissolution, 15 minutes” value turned out to be 0 µg/mL. Besides, the “Dissolution, 7 days” value (maturation temperature 85° C., 7 days) was found to be 0 µg/mL.
